The source made the active and inactive calls. The calls are words filed in the database; no cut-off is given here.
What was measured:
Assay type in all cases: functional, cell-based
Cerebral cortex neuron [1] = test: Neuroprotective activity in Sprague-Dawley rat primary cortical neurons assessed as inhibition of amyloid beta 1 to 42-induced toxicity by measuring cell viability at 100 uM by trypan blue exclusion assay
Cerebral cortex neuron [2] = test: Neuroprotective activity in Sprague-Dawley rat primary cortical neurons assessed as inhibition of glutamate-induced toxicity by measuring cell viability at 0.01 uM by trypan blue exclusion assay
Cerebral cortex neuron [3] = test: Neuroprotective activity in Sprague-Dawley rat primary cortical neurons assessed as inhibition of amyloid beta 1 to 42-induced toxicity by measuring cell viability at 0.1 uM by trypan blue exclusion assay
Cerebral cortex neuron [4] = test: Neuroprotective activity in Sprague-Dawley rat primary cortical neurons assessed as inhibition of glutamate-induced toxicity by measuring cell viability at 10 uM by trypan blue exclusion assay

Row | Structure (SMILES) | Activity (Cerebral cortex neuron [1]) | Activity (Cerebral cortex neuron [3]) | also measured
1 | O=C1CCC(c2cccnc2)N1 (stereo unspecified) | Active | – | –
2 | CN1CCC[C@H]1c1ccc[n+]([O-])c1 | – | – | Activity (Cerebral cortex neuron [2]): Active
3 | C[N+]1=CCC[C@H]1c1cccnc1 | Active | – | –
4 | CN1C(=O)CC[C@H]1c1cccnc1 | – | Active | –
5 | CN1CCC[C@H]1c1cccnc1 | – | Active | –
6 | CC12CC3CC(C)(C1)CC(N)(C3)C2 | – | – | Activity (Cerebral cortex neuron [4]): Active

— ChEMBL document CHEMBL3124939, “Evaluation of nicotine and cotinine analogs as potential neuroprotective agents for Alzheimer's disease” (2014)
